Target: T1, IRAK4 (Homo sapiens, UniProt Q9NWZ3)
T1 construct: endogenous in cells; host or cells: OCI-LY10
T1 sequence (Q9NWZ3 1-460): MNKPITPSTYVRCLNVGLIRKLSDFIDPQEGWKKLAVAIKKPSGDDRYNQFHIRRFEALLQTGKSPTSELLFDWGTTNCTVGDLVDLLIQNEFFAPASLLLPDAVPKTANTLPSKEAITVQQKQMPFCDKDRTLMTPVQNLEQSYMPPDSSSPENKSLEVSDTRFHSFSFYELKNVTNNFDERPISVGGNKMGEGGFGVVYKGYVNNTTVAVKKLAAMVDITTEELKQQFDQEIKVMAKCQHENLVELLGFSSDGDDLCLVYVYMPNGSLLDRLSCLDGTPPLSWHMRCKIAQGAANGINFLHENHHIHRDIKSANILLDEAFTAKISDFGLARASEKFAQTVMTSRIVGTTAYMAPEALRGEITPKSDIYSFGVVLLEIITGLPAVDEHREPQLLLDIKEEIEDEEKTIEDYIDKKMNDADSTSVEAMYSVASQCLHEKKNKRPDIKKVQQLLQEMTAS
Assay: IRAK4 MSD Degradation in OCI-LY10
Type: cell-based
Conditions: OCI-LY10 cells, 4 hrs incubation, read-out: IRAK4 degradation in OCI-LY10 at 4 hrs: DC50
Outline: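 IRAK4 remaining in lysates was read by Meso Scale electrochemiluminescence sandwich (2H9 capture, Y279 plus SULFO-TAG detection). Cells were exposed 4 to 24 h at 37 °C to eight 3-fold dilutions from 1 to 10 μM final top; three-parameter logistic fit gave DC50.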

First: Cn1c(=O)n(C2CCC(=O)NC2=O)c2ccc(N3CCN(C[C@H]4CC[C@H](n5cc6cc(NC(=O)c7cccc(C(C)(C)F)n7)c(C(F)F)cc6n5)CC4)CC3)cc21 (stereo partly drawn) [I-157]
Second: Cn1c(=O)n(C2CCC(=O)NC2=O)c2ccc(C3CCN(C[C@H]4CC[C@H](n5cc6cc(NC(=O)c7cccc(C(C)(C)F)n7)c(C(F)F)cc6n5)CC4)CC3)cc21 (stereo partly drawn) [I-101]
The DC50 of the first is higher: 50 to 100 nM for the first, under 50 nM for the second.

`Cn1c(=O)n(C2CCC(=O)NC2=O)c2cccc(CCN3CC4(CCN(C[C@H]5CC[C@H](n6cc7cc(NC(=O)c8cccc(C(F)(F)F)n8)c(C(C)(C)O)cc7n6)CC5)CC4)C3)c21` (stereo partly drawn) [I-55] and `Cn1c(=O)n(C2CCC(=O)NC2=O)c2cccc(NC3CC4(CCN(C[C@H]5CC[C@H](n6cc7cc(NC(=O)c8cccc(C(F)(F)F)n8)c(C(C)(C)O)cc7n6)CC5)CC4)C3)c21` (stereo partly drawn) [I-153] cannot be ordered by DC50: under 50 nM for the first, under 50 nM for the second.

Compared with `Cn1c(=O)n(C2CCC(=O)NC2=O)c2cccc(C[C@H]3C[C@@]4(CC[C@@H](N(C)C[C@H]5CC[C@H](n6cc7cc(NC(=O)c8cccc(C(F)(F)F)n8)c(C(F)F)cc7n6)CC5)CC4)C3)c21` (stereo partly drawn) [I-155], `COc1cc2nn([C@H]3CC[C@H](CN(C)[C@H]4CC[C@@]5(CC4)C[C@@H](Cc4cccc6c4n(C)c(=O)n6C4CCC(=O)NC4=O)C5)CC3)cc2cc1NC(=O)c1cccc(C(F)(F)F)n1` (stereo partly drawn) [I-152] is higher in DC50: under 50 nM for the first, 50 to 100 nM for the second.

First: Cn1c(=O)n(C2CCC(=O)NC2=O)c2cccc(CN3CC4(C3)CN(C(=O)[C@H]3CC[C@H](n5cc6cc(NC(=O)c7cccc(C(F)(F)F)n7)c(C(C)(C)O)cc6n5)CC3)C4)c21 (stereo partly drawn) [I-45, N-[2-[4-[6-[[1-(2,6-dioxo-3-piperidyl)-3-methyl-2-oxo-benzimidazol-4-yl]methyl]-2,6-diazaspiro[3.3]heptane-2-carbonyl]cyclohexyl]-6-(1-hydroxy-1-methyl-ethyl)indazol-5-yl]-6-(trifluoromethyl)pyridine-2-carboxamide]
Second: CN(C(=O)[C@H]1CC[C@H](n2cc3cc(NC(=O)c4cccc(C(F)(F)F)n4)c(C(C)(C)O)cc3n2)CC1)C1CCN(Cc2cccc3c2n(C)c(=O)n3C2CCC(=O)NC2=O)CC1 (stereo partly drawn) [I-43]
The DC50 of the first is higher: 50 to 100 nM for the first, under 50 nM for the second.

`Cn1c(=O)n(C2CCC(=O)NC2=O)c2cccc(CC3CCN(C[C@H]4CC[C@H](n5cc6cc(NC(=O)c7cccc(C(F)(F)F)n7)c(C(C)(C)O)cc6n5)CC4)CC3)c21` (stereo partly drawn) [I-229] and `COc1cc2nn([C@H]3CC[C@H](CN4CCC(CCc5cccc6c5n(C)c(=O)n6C5CCC(=O)NC5=O)CC4)CC3)cc2cc1NC(=O)c1cccc(C(F)(F)F)n1` (stereo partly drawn) [I-242] cannot be ordered by DC50: under 50 nM for the first, under 50 nM for the second.

First: COc1cc2nn([C@H]3CC[C@H](CN4CCC(c5cccc6c5n(C)c(=O)n6C5CCC(=O)NC5=O)CC4)CC3)cc2cc1NC(=O)c1cnccn1 (stereo partly drawn) [I-327]
Second: COc1cc2nn([C@H]3CC[C@H](CN4CCC(c5cccc6c5n(C)c(=O)n6C5CCC(=O)NC5=O)CC4)CC3)cc2cc1NC(=O)c1cccc(C(C)(C)F)n1 (stereo partly drawn) [I-114]
The DC50 of the first is lower: under 50 nM for the first, 50 to 100 nM for the second.

Compared with `COc1cc2nn([C@H]3CC[C@H](CN4CCC5(CC4)CC(Cc4cccc6c4n(C)c(=O)n6C4CCC(=O)NC4=O)C5)CC3)cc2cc1NC(=O)c1cccc(C(F)(F)F)n1` (stereo partly drawn) [I-109], `COc1cc2nn([C@H]3CC[C@H](CN4CCN(c5ccc6c(c5)n(C)c(=O)n6C5CCC(=O)NC5=O)CC4)CC3)cc2cc1NC(=O)c1cccc(C(F)(F)F)n1` (stereo partly drawn) [I-102] is lower in DC50: 50 to 100 nM for the first, under 50 nM for the second.

First: CN(CCCC#Cc1ccc2c(c1)n(C)c(=O)n2C1CCC(=O)NC1=O)C[C@H]1CC[C@H](n2cc3cc(NC(=O)c4cccc(C(F)(F)F)n4)c(C(C)(C)O)cc3n2)CC1 (stereo partly drawn) [I-67, N-(2-((1r,4r)-4-(((5-(1-(2,6-dioxopiperidin-3-yl)-3-methyl-2-oxo-2,3-dihydro-1H-benzo[d]imidazol-5-yl)pent-4-yn-1-yl)(methyl)amino)methyl)cyclohexyl)-6-(2-hydroxypropan-2-yl)-2H-indazol-5-yl)-6-(trifluoromethyl)picolinamide]
Second: COc1cc2nn([C@H]3CC[C@H](CN4CCC(CCCc5ccc6c(c5)n(C)c(=O)n6C5CCC(=O)NC5=O)CC4)CC3)cc2cc1NC(=O)c1cccc(C(F)(F)F)n1 (stereo partly drawn) [I-145]
The DC50 of the first is lower: under 50 nM for the first, 50 to 100 nM for the second.

First: COc1cc2nn([C@H]3CC[C@H](C(=O)N(C)C4CCN(Cc5cccc6c5n(C)c(=O)n6C5CCC(=O)NC5=O)CC4)CC3)cc2cc1NC(=O)c1cccc(C(F)(F)F)n1 (stereo partly drawn) [I-293]
Second: COc1cc2nn([C@H]3CC[C@H](CN(C)C4CCN(c5cccc6c5n(C)c(=O)n6C5CCC(=O)N(C)C5=O)CC4)CC3)cc2cc1NC(=O)c1cccc(C(F)(F)F)n1 (stereo partly drawn) [I-283]
The DC50 of the first is lower: 50 to 100 nM for the first, 500 to 1000 nM for the second.

Same assay, conditions: OCI-LY10 cells, 24 hrs incubation, read-out: IRAK4 degradation in OCI-LY10 at 24 hrs: DC50

`COc1cc2nn([C@H]3CC[C@H](CN(C)C4CCN(c5cccc6c5C(=O)N(C5CCC(=O)NC5=O)C6=O)CC4)CC3)cc2cc1NC(=O)c1cccc(C(F)(F)F)n1` (stereo partly drawn) [I-76] and `COc1cc2nn([C@H]3CC[C@H](CN(C)CCCO[C@H]4C[C@@H](Nc5cccc6c5C(=O)N(C5CCC(=O)NC5=O)C6=O)C4)CC3)cc2cc1NC(=O)c1cccc(C(F)(F)F)n1` (stereo partly drawn) [I-213] fall in the same range of DC50: 100 to 500 nM for the first, 100 to 500 nM for the second.

`COc1cc2nn([C@H]3CC[C@H](CN4CCC5(CCC(Nc6cccc7c6C(=O)N(C6CCC(=O)NC6=O)C7=O)CC5)CC4)CC3)cc2cc1NC(=O)c1cccc(C(C)(C)F)n1` (stereo partly drawn) [I-88] and `COc1cc2nn([C@H]3CC[C@H](CN4CCC5(CC4)CC(CNc4cccc6c4C(=O)N(C4CCC(=O)NC4=O)C6=O)C5)CC3)cc2cc1NC(=O)c1cccc(C(C)(C)F)n1` (stereo partly drawn) [I-232] fall in the same range of DC50: 50 to 100 nM for the first, 50 to 100 nM for the second.

First: CN[C@@H](C)C(=O)N[C@H](C(=O)N1Cc2cc(OCCCC3CC4(CCN(C[C@H]5CC[C@H](n6cc7cc(NC(=O)c8cccc(C(F)(F)F)n8)c(OC)cc7n6)CC5)CC4)C3)ccc2C[C@H]1C(=O)N[C@@H]1CCCc2ccccc21)C(C)(C)C [I-186, (3S)-2-[(2S)-3,3-Dimethyl-2-[[(2S)-2-(methylamino)propanoyl]amino]butanoyl]-7-[3-[7-[[4-[6-methoxy-5-[[6-(trifluoromethyl)pyridine-2-carbonyl]amino]indazol-2-yl]cyclohexyl]methyl]-7-azaspiro[3.5]nonan-2-yl]propoxy]-N-[(1R)-tetralin-1-yl]-3,4-dihydro-1H-isoquinoline-3-carboxamide]
Second: O=C1CCC(N2C(=O)c3cccc(NCCC4CC5(CCN(C[C@H]6CC[C@H](n7cc8cc(NC(=O)c9cccc(C(F)(F)F)n9)c(OC(F)F)cc8n7)CC6)CC5)C4)c3C2=O)C(=O)N1 (stereo partly drawn) [I-89]
The DC50 of the first is higher: 500 to 1000 nM for the first, 50 to 100 nM for the second.

First: CN(CCCn1cc2cc(NC(=O)c3cccc(C(F)(F)F)n3)c(C(C)(C)O)cc2n1)C1CCC2(CC1)CC(Nc1cccc3c1C(=O)N(C1CCC(=O)NC1=O)C3=O)C2 (stereo not drawn) [I-79]
Second: CN(C[C@H]1CC[C@H](n2cc3cc(NC(=O)c4cccc(C(F)(F)F)n4)c(C(C)(C)O)cc3n2)CC1)C1CCC2(CC1)CC(CNc1cccc3c1C(=O)N(C1CCC(=O)NC1=O)C3=O)C2 (stereo partly drawn) [I-32]
The DC50 of the first is higher: 100 to 500 nM for the first, under 50 nM for the second.

`COc1cc2nn([C@H]3CC[C@H](CN4CCC(O[C@H]5CC[C@H](CNc6cccc7c6C(=O)N(C6CCC(=O)NC6=O)C7=O)CC5)CC4)CC3)cc2cc1NC(=O)c1cccc(C(C)(C)F)n1` (stereo partly drawn) [I-311] and `CC(F)(F)c1cccc(C(=O)Nc2cc3cn([C@H]4CC[C@H](CN5CC6(CC(CCNc7cccc8c7C(=O)N(C7CCC(=O)NC7=O)C8=O)C6)C5)CC4)nc3cc2OC2CC2)n1` (stereo partly drawn) [I-200] fall in the same range of DC50: 50 to 100 nM for the first, 50 to 100 nM for the second.

First: CC(C)(O)c1cc2nn([C@H]3CC[C@H](CN4CCO[C@H](CCCNc5cccc6c5C(=O)N(C5CCC(=O)NC5=O)C6=O)C4)CC3)cc2cc1NC(=O)c1cccc(C(F)(F)F)n1 (stereo partly drawn) [I-64]
Second: COc1cc2nn([C@H]3CC[C@H](CN4CCO[C@H](CCCNc5cccc6c5C(=O)N(C5CCC(=O)NC5=O)C6=O)C4)CC3)cc2cc1NC(=O)c1cccc(C(F)(F)F)n1 (stereo partly drawn) [I-68]
The DC50 of the first is lower: under 50 nM for the first, 50 to 100 nM for the second.

First: Cc1cccc(C(=O)Nc2cc3cn([C@H]4CC[C@H](CN(C)[C@H]5CC[C@H](Nc6cccc7c6C(=O)N(C6CCC(=O)NC6=O)C7=O)CC5)CC4)nc3cc2C(C)(C)O)n1 (stereo partly drawn) [I-47]
Second: CC(C)Oc1cc2nn([C@H]3CC[C@H](CN4CCC5(CC4)CC(Nc4cccc6c4C(=O)N(C4CCC(=O)NC4=O)C6=O)C5)CC3)cc2cc1NC(=O)c1cccc(C(F)(F)F)n1 (stereo partly drawn) [I-202]
The DC50 of the first is lower: under 50 nM for the first, 50 to 100 nM for the second.

`COc1cc2nn([C@H]3CC[C@H](CN4CCC5(CC4)CC(CNc4cccc6c4C(=O)N(C4CCC(=O)NC4=O)C6=O)C5)CC3)cc2cc1NC(=O)c1coc(-c2ccnc(C)c2)n1` (stereo partly drawn) [I-316] and `CC(C)(O)COc1cc2nn([C@H]3CC[C@H](CN4CC5(CC(CCNc6cccc7c6C(=O)N(C6CCC(=O)NC6=O)C7=O)C5)C4)CC3)cc2cc1NC(=O)c1cccc(C(C)(F)F)n1` (stereo partly drawn) [I-296] fall in the same range of DC50: 50 to 100 nM for the first, 50 to 100 nM for the second.

`O=C1CCC(N2C(=O)c3cccc(NCCC4CC5(CCN(C[C@H]6CC[C@H](c7nc8cc(N9CCOCC9)c(NC(=O)c9cccc(C(F)(F)F)n9)cc8o7)CC6)CC5)C4)c3C2=O)C(=O)N1` (stereo partly drawn) [I-199] and `C[C@@]1(CN2CCC3(CC2)CC(CCNc2cccc4c2C(=O)N(C2CCC(=O)NC2=O)C4=O)C3)Cc2cc(NC(=O)c3cccc(C(F)(F)F)n3)c(N3CCOCC3)cc2O1` (stereo partly drawn) [I-319, N-((2S)-2-((2-(2-((2-(2,6-dioxopiperidin-3-yl)-1,3-dioxoisoindolin-4-yl)amino)ethyl)-7-azaspiro[3.5]nonan-7-yl)methyl)-2-methyl-6-morpholino-2,3-dihydrobenzofuran-5-yl)-6-(trifluoromethyl)picolinamide] fall in the same range of DC50: 500 to 1000 nM for the first, 500 to 1000 nM for the second.

Source: patent US12545659B2, “IRAK degraders and uses thereof” (Kymera Therapeutics, Inc., priority 2019, dated 2026)
